Format in all cases: cell-based
One assay deals with E. coli BW25113. As to the kind of experiment: MIC, microdilution in 96-well plates. As to conditions: Escherichia coli, BW25113, E. coli BW25113; read-out: MIC. In short, it runs like this: (§1)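 Each of the 20 strains is tested in LB at a 1:10000 dilution of a growing subculture. Compound is titrated 2-fold in three replicates; a DMSO column serves as vehicle control. After shaking incubation at 37° C. for 16-18 hours, MIC is taken as the lowest clear concentration.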
In general terms: In broth dilution the organism is exposed to a series of concentrations in liquid medium.

Another assay has as its system Edwardsiella tarda. Description: MIC, microdilution in 96-well plates. In short, it runs like this: as §1
The test system of another assay is E. coli JW5503 (deltolC). As to the kind of experiment: MIC, 20-strain panel. The note with it: Escherichia coli, E. coli JW5503 (deltolC). In a few lines:
as §1

In another assay the test system is E. coli MG1655. As to the kind of experiment: MIC, 20-strain panel. The note with it: Escherichia coli, MG1655, E. coli MG1655; read-out: MIC. In short, it runs like this: as §1
The subject of assay [1] is Klebsiella pneumoniae subsp. pneumoniae. Description: MIC, 20-strain panel. The note with it: Klebsiella pneumoniae subsp. pneumoniae. In short, it runs like this:
as §1

Assay [2] relates to Salmonella enterica subsp. enterica typhimurium. As to the kind of experiment: MIC, 20-strain panel. As to conditions: Salmonella enterica subsp. enterica Typhimurium. In a few lines:
as §1

Another assay relates to Shigella flexneri. As to the kind of experiment: MIC, 20-strain panel. In a few lines: as §1
Assay [3] has as its system Staphylococcus aureus subsp. aureus. Description: MIC, 20-strain panel. The note with it: Staphylococcus aureus subsp. aureus, read-out: MIC. In short, it runs like this:
as §1

Assay [4] concerns Staphylococcus epidermidis. Description: MIC, 20-strain panel. In a few lines:
as §1

The subject of assay [5] is Staphylococcus saprophyticus subsp. saprophyticus. Description: MIC, 20-strain panel. In short, it runs like this:
as §1

A further assay relates to Streptococcus agalactiae. As to the kind of experiment: MIC, 20-strain panel. In a few lines:
as §1

The subject of the next assay is Streptococcus pyogenes. As to the kind of experiment: MIC, 20-strain panel. In a few lines: as §1

MIC data for 16 compounds are collected here from US10253039B2, “Inhibitors of bacterial DNA gyrase with efficacy against gram-negative bacteria” (priority 2014, dated 2019).

SMILES strings stand for the structures. In brackets after ≈: the same amount, converted by molar mass.

The MIC is the lowest concentration that inhibits growth of the organism. Take `CC(=O)c1cccc(S(=O)(=O)N[C@@H]2CCN(Cc3ccc(OC4CC4)cc3)C2)c1` [Compound 134]: the MIC in the assay on E. coli BW25113 was more than 8 µg/mL; in the assay with Edwardsiella tarda it was more than 8 µg/mL; against E. coli JW5503 (deltolC), 4 µg/mL (≈ 9.65 µM); with E. coli MG1655, more than 8 µg/mL; in assay [1] it was more than 8 µg/mL; in assay [2] it was approximately 8 µg/mL (≈ 19.3 µM). For the same compound, the minimum inhibitory concentration (MIC) (against Shigella flexneri; in assay [3]; in assay [4]; in [5]; against Streptococcus agalactiae; in the assay with Streptococcus pyogenes) was more than 8 µg/mL each time.

In the case of `CC(C)Oc1ccc(CN2CC[C@@H](NS(=O)(=O)c3cc(C(F)(F)F)cc(C(F)(F)F)c3)C2)cc1` [Compound 135], the MIC in the assay on E. coli BW25113 was more than 8 µg/mL; with Edwardsiella tarda, more than 8 µg/mL; in the assay on E. coli JW5503 (deltolC), 8 µg/mL (≈ 15.7 µM); in the assay with E. coli MG1655, more than 8 µg/mL; in assay [1], more than 8 µg/mL; in assay [2], more than 8 µg/mL. The MIC (against Shigella flexneri; in assay [3]; in assay [4]; in assay [5]; against Streptococcus agalactiae; against Streptococcus pyogenes) was more than 8 µg/mL throughout.

As for `CC(C)Oc1ccc(CN2CC[C@@H](NS(=O)(=O)c3ncc[nH]3)C2)cc1` [Compound 136], the minimal inhibitory concentration (MIC) in the assay with E. coli BW25113 is more than 8 µg/mL; against Edwardsiella tarda, more than 8 µg/mL; with E. coli JW5503 (deltolC), approximately 8 µg/mL (≈ 21.9 µM); in the assay with E. coli MG1655, more than 8 µg/mL; in [1] it was more than 8 µg/mL; in assay [2], more than 8 µg/mL. In addition, the minimal inhibitory concentration (MIC) (in the assay with Shigella flexneri; in assay [3]; in [4]; in [5]; against Streptococcus agalactiae; with Streptococcus pyogenes) was more than 8 µg/mL each time.

As for `Cc1ccncc1S(=O)(=O)N[C@@H]1CCN(Cc2ccc(-c3ccccc3)cc2)C1` [Compound 137], the MIC in the assay on E. coli BW25113 is more than 8 µg/mL; against Edwardsiella tarda, more than 8 µg/mL; in the assay with E. coli JW5503 (deltolC), 2 µg/mL (≈ 4.91 µM); in the assay on E. coli MG1655 it was more than 8 µg/mL; in assay [1], more than 8 µg/mL; in assay [2], more than 8 µg/mL. For the same compound, the MIC (against Shigella flexneri; in assay [3]; in [4]; in assay [5]; with Streptococcus agalactiae; in the assay with Streptococcus pyogenes) was more than 8 µg/mL each time.

Turning to `CC(C)Oc1ccc(CN2CC[C@@H](NS(=O)(=O)c3ccc(C#N)nc3)C2)cc1` [Compound 138], the MIC (in the assay with E. coli BW25113; against Edwardsiella tarda; against E. coli JW5503 (deltolC); with E. coli MG1655; in assay [1]; in [2]) was more than 8 µg/mL in each case. Besides, the MIC (with Shigella flexneri; in assay [3]; in [4]; in [5]; in the assay with Streptococcus agalactiae; in the assay with Streptococcus pyogenes) was more than 8 µg/mL each time.

As for `Cc1ccc(S(=O)(=O)N[C@@H]2CCN(Cc3ccc(OC(C)C)cc3)C2)cn1` [Compound 139], the MIC (in the assay on E. coli BW25113; with Edwardsiella tarda; in the assay on E. coli JW5503 (deltolC); in the assay with E. coli MG1655; in assay [1]; in assay [2]) was more than 8 µg/mL throughout. Besides, the MIC (against Shigella flexneri; in [3]; in [4]; in [5]; in the assay on Streptococcus agalactiae; in the assay with Streptococcus pyogenes) was more than 8 µg/mL in each case.

As to `CC(C)Oc1ccc(CN2CC[C@@H](NS(=O)(=O)c3cc(C(F)(F)F)ccc3Cl)C2)cc1` [Compound 140], the minimal inhibitory concentration (MIC) was more than 8 µg/mL in the assay with E. coli BW25113; more than 8 µg/mL in the assay on Edwardsiella tarda; less than 0.0625 µg/mL with E. coli JW5503 (deltolC); more than 8 µg/mL in the assay on E. coli MG1655; more than 8 µg/mL in [1]; 4 µg/mL (≈ 8.39 µM) in [2]. Besides, the minimal inhibitory concentration (MIC) (in the assay on Shigella flexneri; in assay [3]; in [4]; in assay [5]; against Streptococcus agalactiae; in the assay on Streptococcus pyogenes) was more than 8 µg/mL throughout.

`O=S(=O)(N[C@@H]1CCN(Cc2ccc(-c3ccccc3)cc2)C1)c1ccc(Cl)cn1` [Compound 141]: the MIC with E. coli BW25113 was more than 8 µg/mL; in the assay on Edwardsiella tarda it was more than 8 µg/mL; against E. coli JW5503 (deltolC) it was approximately 8 µg/mL (≈ 18.7 µM); in the assay on E. coli MG1655, more than 8 µg/mL; in assay [1], more than 8 µg/mL; in assay [2], more than 8 µg/mL. The MIC (in the assay with Shigella flexneri; in assay [3]; in assay [4]; in assay [5]; with Streptococcus agalactiae; in the assay on Streptococcus pyogenes) was more than 8 µg/mL in each case.

With `CS(=O)(=O)c1ccc(Cl)c(S(=O)(=O)N[C@@H]2CCN(Cc3ccc(-c4ccccc4)cc3)C2)c1` [Compound 142], the MIC in the assay on E. coli BW25113 is more than 8 µg/mL; in the assay with Edwardsiella tarda, more than 8 µg/mL; in the assay with E. coli JW5503 (deltolC), 2 µg/mL (≈ 3.96 µM); in the assay with E. coli MG1655 it was more than 8 µg/mL; in assay [1], more than 8 µg/mL; in assay [2] it was more than 8 µg/mL. The MIC (in the assay with Shigella flexneri; in assay [3]; in assay [4]; in assay [5]; in the assay with Streptococcus agalactiae; against Streptococcus pyogenes) was more than 8 µg/mL in each case.

Turning to `Cc1c(CN2CC[C@@H](NS(=O)(=O)c3cccc(OC(F)(F)F)c3)C2)cnn1-c1ccccc1` [Compound 144], the minimal inhibitory concentration (MIC) with E. coli BW25113 is more than 8 µg/mL; against Edwardsiella tarda, more than 8 µg/mL; against E. coli JW5503 (deltolC) it was 8 µg/mL (≈ 16.6 µM); in the assay on E. coli MG1655 it was more than 8 µg/mL; in assay [1], more than 8 µg/mL; in [2], more than 8 µg/mL. For the same compound, the MIC (in the assay on Shigella flexneri; in assay [3]; in [4]; in assay [5]; against Streptococcus agalactiae; in the assay with Streptococcus pyogenes) was more than 8 µg/mL throughout.

With `N#Cc1cccc(S(=O)(=O)N[C@@H]2CCN(Cc3ccc(-n4cccn4)cc3)C2)c1` [Compound 145], the MIC was more than 8 µg/mL in the assay on E. coli BW25113; more than 8 µg/mL in the assay on Edwardsiella tarda; 8 µg/mL (≈ 19.6 µM) against E. coli JW5503 (deltolC); more than 8 µg/mL in the assay on E. coli MG1655; more than 8 µg/mL in assay [1]; more than 8 µg/mL in [2]. The MIC (in the assay with Shigella flexneri; in assay [3]; in [4]; in assay [5]; in the assay with Streptococcus agalactiae; in the assay on Streptococcus pyogenes) was more than 8 µg/mL throughout.

With `O=S(=O)(N[C@@H]1CCN(Cc2ccc(-c3ccccc3)cc2)C1)c1cccnc1` [Compound 146], the minimal inhibitory concentration (MIC) in the assay with E. coli BW25113 is more than 8 µg/mL; in the assay on Edwardsiella tarda it was more than 8 µg/mL; in the assay on E. coli JW5503 (deltolC), 8 µg/mL (≈ 20.3 µM); with E. coli MG1655, more than 8 µg/mL; in assay [1], more than 8 µg/mL; in assay [2] it was more than 8 µg/mL. Moreover, the minimum inhibitory concentration (MIC) (against Shigella flexneri; in assay [3]; in assay [4]; in [5]; in the assay on Streptococcus agalactiae; against Streptococcus pyogenes) was more than 8 µg/mL each time.

On to `O=S(=O)(N[C@@H]1CCN(Cc2ccc(-c3ccccc3)cc2)C1)c1cncc(F)c1` [Compound 147], for which the MIC with E. coli BW25113 is more than 8 µg/mL; with Edwardsiella tarda it was more than 8 µg/mL; with E. coli JW5503 (deltolC) it was 8 µg/mL (≈ 19.4 µM); in the assay with E. coli MG1655, more than 8 µg/mL; in [1], more than 8 µg/mL; in assay [2], more than 8 µg/mL. The minimal inhibitory concentration (MIC) (against Shigella flexneri; in [3]; in assay [4]; in assay [5]; against Streptococcus agalactiae; against Streptococcus pyogenes) was more than 8 µg/mL in each case.

Regarding `CC(C)Oc1ccc(CN2CC[C@@H](NS(=O)(=O)c3cc(S(C)(=O)=O)ccc3Cl)C2)cc1` [Compound 148], the minimum inhibitory concentration (MIC) in the assay with E. coli BW25113 was more than 8 µg/mL; in the assay on Edwardsiella tarda, more than 8 µg/mL; with E. coli JW5503 (deltolC), 8 µg/mL (≈ 16.4 µM); in the assay with E. coli MG1655, more than 8 µg/mL; in assay [1], more than 8 µg/mL; in assay [2] it was more than 8 µg/mL. Further, the MIC (against Shigella flexneri; in assay [3]; in assay [4]; in assay [5]; in the assay on Streptococcus agalactiae; with Streptococcus pyogenes) was more than 8 µg/mL throughout.

Regarding `CC(C)Oc1ccc(CN2CC[C@@H](NS(=O)(=O)c3ccc(Cl)cn3)C2)cc1` [Compound 149], the MIC (with E. coli BW25113; in the assay on Edwardsiella tarda; against E. coli JW5503 (deltolC); in the assay with E. coli MG1655; in assay [1]; in assay [2]) was more than 8 µg/mL throughout. The minimum inhibitory concentration (MIC) (against Shigella flexneri; in assay [3]; in [4]; in [5]; in the assay with Streptococcus agalactiae; with Streptococcus pyogenes) was more than 8 µg/mL in each case.

Consider `CC(C)Oc1ccc(CN2CC[C@@H](NS(=O)(=O)c3cncc(F)c3)C2)cc1` [Compound 150], for which the minimal inhibitory concentration (MIC) (with E. coli BW25113; in the assay on Edwardsiella tarda; against E. coli JW5503 (deltolC); in the assay on E. coli MG1655; in assay [1]; in assay [2]) was more than 8 µg/mL each time. Besides, the MIC (in the assay with Shigella flexneri; in [3]; in [4]; in assay [5]; against Streptococcus agalactiae; with Streptococcus pyogenes) was more than 8 µg/mL in each case.
